This is an account of results in patent US20200392158A1, “INHIBITORS OF LEUCINE RICH REPEAT KINASE 2” (GLAXOSMITHKLINE INTELLECTUAL PROPERTY DEVELOPMENT LIMITED, priority 2017, published 2020).

Experiment [1] deals with T1, LRRK2 kinase in SH-SY5Y cells over-expressing recombinant full length LRRK2 (Homo sapiens, UniProt Q5S007).
T1 construct: A BacMam virus expressing full length recombinant LRRK2 was purchased from Invitrogen; host or cells: SH-SY5Y human neuroblastoma cells transduced with BacMam LRRK2 virus
T1 sequence (Q5S007 whole entry): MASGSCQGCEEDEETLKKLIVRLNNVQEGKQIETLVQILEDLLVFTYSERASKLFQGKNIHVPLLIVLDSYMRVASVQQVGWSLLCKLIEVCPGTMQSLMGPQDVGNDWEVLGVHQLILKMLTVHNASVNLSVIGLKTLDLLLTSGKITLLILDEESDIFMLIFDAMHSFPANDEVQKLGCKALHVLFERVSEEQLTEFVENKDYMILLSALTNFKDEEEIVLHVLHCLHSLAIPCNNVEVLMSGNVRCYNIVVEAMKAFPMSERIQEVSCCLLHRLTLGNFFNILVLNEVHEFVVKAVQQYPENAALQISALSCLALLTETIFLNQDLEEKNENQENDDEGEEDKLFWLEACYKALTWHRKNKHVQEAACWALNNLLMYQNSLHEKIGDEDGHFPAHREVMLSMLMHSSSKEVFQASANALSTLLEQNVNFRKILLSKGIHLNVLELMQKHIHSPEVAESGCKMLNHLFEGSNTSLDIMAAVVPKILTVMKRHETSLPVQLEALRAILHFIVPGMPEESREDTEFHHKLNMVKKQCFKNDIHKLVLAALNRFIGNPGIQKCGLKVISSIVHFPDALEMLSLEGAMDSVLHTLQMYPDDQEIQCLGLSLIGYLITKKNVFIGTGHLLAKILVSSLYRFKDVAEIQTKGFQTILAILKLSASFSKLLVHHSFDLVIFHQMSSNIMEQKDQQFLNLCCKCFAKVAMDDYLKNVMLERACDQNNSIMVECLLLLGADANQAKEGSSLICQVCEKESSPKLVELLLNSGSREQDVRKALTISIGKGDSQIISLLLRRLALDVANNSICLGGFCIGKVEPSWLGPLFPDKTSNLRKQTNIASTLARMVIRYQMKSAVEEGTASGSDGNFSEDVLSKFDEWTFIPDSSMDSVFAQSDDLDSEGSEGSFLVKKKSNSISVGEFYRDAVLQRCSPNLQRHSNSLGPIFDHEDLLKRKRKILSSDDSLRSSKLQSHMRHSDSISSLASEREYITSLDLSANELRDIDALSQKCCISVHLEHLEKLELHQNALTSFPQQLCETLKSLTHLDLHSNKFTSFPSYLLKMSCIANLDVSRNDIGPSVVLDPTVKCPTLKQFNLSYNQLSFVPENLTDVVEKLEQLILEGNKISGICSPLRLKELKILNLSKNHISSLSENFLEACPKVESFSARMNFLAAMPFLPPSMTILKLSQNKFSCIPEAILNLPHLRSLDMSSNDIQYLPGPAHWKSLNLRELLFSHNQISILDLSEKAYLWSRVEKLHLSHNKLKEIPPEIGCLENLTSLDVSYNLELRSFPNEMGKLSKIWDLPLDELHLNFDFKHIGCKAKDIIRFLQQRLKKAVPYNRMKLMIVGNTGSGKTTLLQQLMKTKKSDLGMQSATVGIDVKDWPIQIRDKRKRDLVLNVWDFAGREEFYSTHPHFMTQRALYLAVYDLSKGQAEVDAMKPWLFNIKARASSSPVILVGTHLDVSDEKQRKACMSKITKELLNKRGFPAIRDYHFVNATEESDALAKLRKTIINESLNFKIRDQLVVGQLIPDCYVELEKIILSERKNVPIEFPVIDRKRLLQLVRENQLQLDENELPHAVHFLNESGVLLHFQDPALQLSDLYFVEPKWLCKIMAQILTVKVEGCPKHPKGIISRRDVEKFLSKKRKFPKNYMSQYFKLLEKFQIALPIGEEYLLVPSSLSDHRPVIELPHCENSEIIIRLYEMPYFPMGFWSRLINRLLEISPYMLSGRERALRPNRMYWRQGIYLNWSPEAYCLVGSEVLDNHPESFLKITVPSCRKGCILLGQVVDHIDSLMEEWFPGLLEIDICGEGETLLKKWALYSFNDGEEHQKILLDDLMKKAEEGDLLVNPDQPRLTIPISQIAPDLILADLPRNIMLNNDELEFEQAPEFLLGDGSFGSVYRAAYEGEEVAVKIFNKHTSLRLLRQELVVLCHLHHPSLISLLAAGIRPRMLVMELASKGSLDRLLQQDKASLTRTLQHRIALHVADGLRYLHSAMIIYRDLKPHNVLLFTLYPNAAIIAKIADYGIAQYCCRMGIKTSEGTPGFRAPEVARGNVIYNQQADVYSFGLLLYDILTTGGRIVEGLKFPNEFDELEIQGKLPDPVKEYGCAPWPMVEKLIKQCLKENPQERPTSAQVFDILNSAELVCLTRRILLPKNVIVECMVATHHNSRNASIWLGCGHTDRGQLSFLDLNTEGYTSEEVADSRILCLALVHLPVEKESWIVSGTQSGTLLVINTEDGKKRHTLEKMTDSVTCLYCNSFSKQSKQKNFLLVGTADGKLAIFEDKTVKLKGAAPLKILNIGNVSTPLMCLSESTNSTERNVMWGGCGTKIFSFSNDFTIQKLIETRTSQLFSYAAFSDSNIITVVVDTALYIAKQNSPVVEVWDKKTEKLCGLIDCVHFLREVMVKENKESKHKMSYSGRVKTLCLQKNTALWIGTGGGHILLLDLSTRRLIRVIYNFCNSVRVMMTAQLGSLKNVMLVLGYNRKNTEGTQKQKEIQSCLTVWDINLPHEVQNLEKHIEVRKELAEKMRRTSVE
As to the kind of experiment: Recombinant cellular LRRK2 AlphaScreen assay (LRRK2 Ser935 phosphorylation). The experiment is classed as cell-based. As to conditions: 60 min. In short, it runs like this: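 SH-SY5Y cells transduced with BacMam full-length LRRK2 (MOI 50) for 24 h, then treated 60 min at 37 °C with compound (11-point 1:4 series, top 10 uM, 0.1% DMSO). Lysates probed by AlphaScreen for pSer935 vs total LRRK2; values fitted to a sigmoidal dose-response model.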
On the technique in general: Alpha assays give light when donor and acceptor beads are brought close together.

The target of experiment [2] is T2, full length G2019 human LRRK2 (Homo sapiens, UniProt Q5S007, R50H).
T2 construct: made in house; host or cells: HEK293 6E cells transduced with BacMam virus (virus generated in Sf9 cells)
T2 sequence (Q5S007 with tags, fused parts or gaps R50H): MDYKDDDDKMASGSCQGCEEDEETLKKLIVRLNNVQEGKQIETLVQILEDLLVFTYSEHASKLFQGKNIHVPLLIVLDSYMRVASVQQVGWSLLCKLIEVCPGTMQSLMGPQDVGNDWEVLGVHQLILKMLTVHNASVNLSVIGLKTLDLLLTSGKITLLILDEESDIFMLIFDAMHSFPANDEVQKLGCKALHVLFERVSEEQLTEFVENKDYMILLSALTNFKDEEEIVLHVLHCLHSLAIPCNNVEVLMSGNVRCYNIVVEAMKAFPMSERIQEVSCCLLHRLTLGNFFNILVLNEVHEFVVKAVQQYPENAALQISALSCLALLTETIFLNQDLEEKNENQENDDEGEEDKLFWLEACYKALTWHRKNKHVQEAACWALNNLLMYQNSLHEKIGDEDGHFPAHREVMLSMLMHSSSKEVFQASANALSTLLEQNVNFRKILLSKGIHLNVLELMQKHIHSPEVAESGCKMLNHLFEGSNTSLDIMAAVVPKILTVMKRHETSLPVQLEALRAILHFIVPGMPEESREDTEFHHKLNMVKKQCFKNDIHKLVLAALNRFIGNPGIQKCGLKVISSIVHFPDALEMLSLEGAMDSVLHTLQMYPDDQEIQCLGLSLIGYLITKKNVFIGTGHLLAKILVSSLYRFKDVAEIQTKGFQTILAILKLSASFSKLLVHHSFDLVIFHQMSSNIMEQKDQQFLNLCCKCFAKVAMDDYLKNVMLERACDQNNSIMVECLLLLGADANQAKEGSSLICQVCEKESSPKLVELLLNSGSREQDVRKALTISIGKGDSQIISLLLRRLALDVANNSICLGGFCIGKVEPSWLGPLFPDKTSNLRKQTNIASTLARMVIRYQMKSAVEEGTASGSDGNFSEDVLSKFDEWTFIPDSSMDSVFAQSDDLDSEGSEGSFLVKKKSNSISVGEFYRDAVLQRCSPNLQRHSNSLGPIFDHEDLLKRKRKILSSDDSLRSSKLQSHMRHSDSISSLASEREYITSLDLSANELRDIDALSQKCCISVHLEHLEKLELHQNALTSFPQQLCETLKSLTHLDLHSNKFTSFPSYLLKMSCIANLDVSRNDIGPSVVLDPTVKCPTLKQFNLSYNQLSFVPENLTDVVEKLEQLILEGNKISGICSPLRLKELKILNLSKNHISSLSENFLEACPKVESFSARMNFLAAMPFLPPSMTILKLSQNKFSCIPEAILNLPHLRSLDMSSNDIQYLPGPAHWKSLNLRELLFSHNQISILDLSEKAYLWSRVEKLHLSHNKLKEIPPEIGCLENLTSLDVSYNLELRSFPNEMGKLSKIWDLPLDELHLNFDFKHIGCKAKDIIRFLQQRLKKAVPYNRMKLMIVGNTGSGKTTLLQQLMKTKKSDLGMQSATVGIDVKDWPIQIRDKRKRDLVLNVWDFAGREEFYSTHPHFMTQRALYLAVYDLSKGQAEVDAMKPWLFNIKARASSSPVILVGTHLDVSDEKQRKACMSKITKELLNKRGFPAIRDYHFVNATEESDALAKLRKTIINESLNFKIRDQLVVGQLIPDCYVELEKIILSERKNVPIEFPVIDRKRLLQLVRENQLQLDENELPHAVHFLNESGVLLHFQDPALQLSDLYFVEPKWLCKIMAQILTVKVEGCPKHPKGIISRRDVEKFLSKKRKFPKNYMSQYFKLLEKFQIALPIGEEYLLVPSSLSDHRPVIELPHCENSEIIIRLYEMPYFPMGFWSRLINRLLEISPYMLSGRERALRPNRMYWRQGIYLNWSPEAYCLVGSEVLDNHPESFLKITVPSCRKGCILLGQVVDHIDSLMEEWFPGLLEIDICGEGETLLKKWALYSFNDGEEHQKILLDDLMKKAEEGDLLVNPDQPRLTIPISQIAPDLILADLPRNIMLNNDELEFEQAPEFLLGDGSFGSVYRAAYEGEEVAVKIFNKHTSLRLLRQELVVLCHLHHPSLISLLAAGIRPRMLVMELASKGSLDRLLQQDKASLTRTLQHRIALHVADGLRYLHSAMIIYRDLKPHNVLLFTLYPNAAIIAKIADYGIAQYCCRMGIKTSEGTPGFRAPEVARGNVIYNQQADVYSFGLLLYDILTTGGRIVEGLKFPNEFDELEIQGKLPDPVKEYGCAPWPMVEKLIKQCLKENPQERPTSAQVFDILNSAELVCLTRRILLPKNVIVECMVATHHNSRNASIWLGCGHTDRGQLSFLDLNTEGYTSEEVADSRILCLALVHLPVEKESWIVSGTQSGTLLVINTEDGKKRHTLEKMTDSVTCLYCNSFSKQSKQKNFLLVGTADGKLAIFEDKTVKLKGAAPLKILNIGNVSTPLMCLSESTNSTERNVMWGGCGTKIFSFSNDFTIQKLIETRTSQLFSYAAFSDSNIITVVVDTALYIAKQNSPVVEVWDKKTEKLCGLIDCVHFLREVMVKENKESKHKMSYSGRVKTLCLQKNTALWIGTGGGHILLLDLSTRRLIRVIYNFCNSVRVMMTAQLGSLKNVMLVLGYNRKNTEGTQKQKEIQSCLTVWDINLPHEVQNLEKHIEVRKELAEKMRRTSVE
As to the kind of experiment: Full length G2019 human LRRK2 inhibition mass spectrometry assay. The experiment is classed as biochemical. As to conditions: LRRKtide to phospho-LRRKtide conversion, RapidFire MS, 2 mM ATP. In short, it runs like this:
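Purified full-length Flag-tagged G2019 LRRK2, ~25 nM, with 25 μM LRRKtide and 2 mM ATP in 50 mM Hepes pH 7.2, 10 mM MgCl2, 150 mM NaCl, 1 h at room temperature. Quenched with formic acid; phospho- and unphosphorylated LRRKtide measured by RapidFire MS. pIC50 from 4-parameter fit of % conversion, 11 points, top 100 μM.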

For orientation: IC50 means the concentration that gives 50% inhibition. Consider `Cc1c2c(nn1C1CC(N3C[C@H]4C[C@@H]3CO4)C1)OCC[C@@H](C)Nc1nc(ncc1Cl)N2` (stereo partly drawn) [E317, (11R)-14-Chloro-4,11-dimethyl-5-{3-[(1R,4R)-2-oxa-5-azabicycle [2.2.1]heptan-5-yl]cyclobutyl}-8-oxa-2,5,6,12,16,17-hexaaza tricyclo[11.3.1.0^3,7]heptadeca-1(16),3,6,13(17),14-pentaene], for which the IC50 in experiment [1] and in experiment [2] was no more than 100 nM in each case.

Consider `Cc1c2c(nn1CCN1CCC(F)C1)OCCC(C)Nc1nc(ncc1Cl)N2` (single isomer, unassigned) [E218, 14-Chloro-5-[2-(3-fluoropyrrolidin-1-yl)ethyl]-4,11-dimethyl-8-oxa-2,5,6,12,16,17-hexaazatricyclo [11.3.1.0^3,7] heptadeca-1(16),3,6,13(17),14-pentaene], for which the IC50 in experiment [1] and in experiment [2] was no more than 100 nM throughout.

As to `Cc1c2c(nn1C1CC(N3CCOCC3)C1)OCC[C@@H](C)Nc1nc(ncc1Cl)N2` (stereo partly drawn) [E106, (11R)-14-chloro-4,11-dimethyl-5-[3-(morpholin-4-yl)cyclobutyl]-8-oxa-2,5,6,12,16,17-hexaazatricyclo[11.3.1.0^3,7]heptadeca-1(16),3,6,13(17),14-pentaene], the half-maximal inhibitory concentration (IC50) in experiment [1] and in experiment [2] was no more than 100 nM throughout.

Regarding `Cc1c2c(nn1C1CCOCC1)OCCC(C(F)(F)F)Nc1nc(ncc1Cl)N2` (single isomer, unassigned) [E192, 14-Chloro-4-methyl-5-(oxan-4-yl)-11-(trifluoromethyl)-8-oxa-2,5,6,12,16,17-hexaazatricyclo[11.3.1.0^3,7] heptadeca-1(16),3,6,13(17),14-pentaene], the IC50 in experiment [1] and in experiment [2] was no more than 100 nM each time.

In the case of `Cc1c2c(nn1C1CCOC1)OCCCNc1nc(ncc1Cl)N2` (single isomer, unassigned) [E123, 14-chloro-4-methyl-5-(oxolan-3-yl)-8-oxa-2,5,6,12,16,17-hexaazatricyclo[11.3.1.0^3,7]heptadeca-1(16),3,6,13(17), 14-pentaene], the IC50 in experiment [1] and in experiment [2] was no more than 100 nM each time.

On to `Cc1c2c(nn1C1CCOCC1)OCCC(C)Nc1nc(ncc1Br)N2` (single isomer, unassigned) [E30, 14-bromo-4,11-dimethyl-5-(oxan-4-yl)-8-oxa-2,5,6,12,16,17-hexaaza tricyclo[11.3.1.0^3,7]heptadeca-1(16),3,6,13(17),14-pentaene], for which the IC50 in experiment [1] and in experiment [2] was no more than 100 nM each time.

Turning to `Cc1c2c(nn1C1CCOC1)OCCCNc1nc(ncc1C(F)(F)F)N2` (single isomer, unassigned) [E127, 4-methyl-5-(oxolan-3-yl)-14-(trifluoromethyl)-8-oxa-2,5,6,12,16,17-hexaazatricyclo[11.3.1.0^3,7]heptadeca-1(16),3,6,13(17),14-pentaene], the IC50 in experiment [1] and in experiment [2] was no more than 100 nM each time.

Consider `Clc1cnc2nc1NCCCOc1nn(C3CCOC3)c(Cl)c1N2` (single isomer, unassigned) [E145, 4,14-Dichloro-5-(oxolan-3-yl)-8-oxa-2,5,6,12, 16,17-hexaaza tricyclo[11.3.1.0^3,7]heptadeca-1(16),3,6,13(17), 14-pentaene], for which the IC50 in experiment [1] and in experiment [2] was no more than 100 nM each time.

As for `CCc1[nH]nc2c1Nc1ncc(Cl)c(n1)N[C@H](C)CCO2` [E430, (11R)-14-Chloro-4-ethyl-11-methyl-8-oxa-2,5,6,12,16,17-hexaazatricyclo[11.3.1.0^3,7]heptadeca-1(16),3,6,13(17),14-entaene], the IC50 in experiment [1] and in experiment [2] was no more than 100 nM in each case.

In the case of `Cc1c2c(nn1C1CCOCC1)OCC(F)(F)CNc1nc(ncc1Cl)N2` [E377, 14-Chloro-10,10-difluoro-4-methyl-5-(oxan-4-yl)-8-oxa-2,5,6,12,16,17-hexaazatricyclo[11.3.1.0^3,7]heptadeca-1(16),3,6,13(17),14-pentaene], the IC50 in experiment [1] and in experiment [2] was no more than 100 nM each time.

On to `Clc1cnc2nc1NCCCOc1n[nH]c(Cl)c1N2` [E396, 4,14-Dichloro-8-oxa-2,5,6,12,16,17 hexaazatricyclo[11.3.1.0^3,7] heptadeca-1(16),3,6,13(17),14-pentaene], for which the IC50 in experiment [1] and in experiment [2] was no more than 100 nM each time.

On to `Cc1c2c(nn1C1CCOCC1(C)C)OCC[C@@H](C)Nc1nc(ncc1Cl)N2` (stereo partly drawn) [E421, (11R)-14-Chloro-5-(3,3-dimethyloxan-4-yl)-4,11-dimethyl-8-oxa-2,5,6,12,16,17-hexaazatricyclo[11.3.1.0^3,7]heptadeca-1(16),3,6,13(17),14-pentaene], for which the IC50 in experiment [1] and in experiment [2] was no more than 100 nM each time.

`Cc1c2c(nn1C1CCOCC1)OCC(C)C(C)Nc1nc(ncc1Cl)N2` (single isomer, unassigned) [E32, 14-chloro-4,10,11-trimethyl-5-(oxan-4-yl)-8-oxa-2,5,6,12,16,17-hexaazatricyclo [11.3.1.0^3,7]heptadeca-1(16),3,6,13(17),14-pentaene]: the IC50 in experiment [1] and in experiment [2] was no more than 100 nM throughout.

Consider `C[C@@H]1CCOc2nn(C3CCN(C4COC4)CC3(F)F)c(Cl)c2Nc2ncc(Cl)c(n2)N1` (single isomer, unassigned) [E444], for which the IC50 in experiment [1] and in experiment [2] was no more than 100 nM in each case.

As for `Cc1c2c(nn1C1CCN(C3COC3)CC1)OCC[C@@H](C)Nc1nc(ncc1Cl)N2` [E65, (11R)-14-chloro-4,11-dimethyl-5-[1-(oxetan-3-yl)piperidin-4-yl]-8-oxa-2,5,6,12,16,17-hexaazatricyclo[11.3.1.0^3,7]heptadeca-1(16),3,6,13(17),14-pentaene], the IC50 in experiment [1] and in experiment [2] was no more than 100 nM each time.

`Cc1c2c(nn1C1CC(OC(F)F)C1)OCC[C@@H](C)Nc1nc(ncc1Cl)N2` (stereo partly drawn) [E378, (11R)-14-Chloro-5-[3-(difluoromethoxy)cyclobutyl]-4,11-dimethyl-8-oxa-2,5,6,12,16,17-hexaazatricyclo[11.3.1.0^3,7] heptadeca-1(16),3,6,13(17),14-pentaene]: the IC50 in experiment [1] and in experiment [2] was no more than 100 nM in each case.

As for `Cc1c2c(nn1C1CCOCC1)OCCCOc1nc(ncc1C(F)(F)F)N2` [E117, 4-Methyl-5-(oxan-4-yl)-14-(trifluoromethyl)-8,12-dioxa-2,5,6, 16,17-pentaazatricyclo[11.3.1.0^3,7]heptadeca-1(16),3,6,13(17),14-pentaene], the IC50 in experiment [1] and in experiment [2] was no more than 100 nM in each case.

Take `Cc1c2c(nn1C1CCN(C3COC3)CC1(F)F)OCCCNc1nc(ncc1Cl)N2` (single isomer, unassigned) [E406, 14-Chloro-5-[3,3-difluoro-1-(oxetan-3-yl)piperidin-4-yl]-4-methyl-8-oxa-2,5,6,12,16,17-hexaazatricyclo[11.3.1.0^3,7]heptadeca-1(16),3,6,13(17),14-pentaene]: the IC50 in experiment [1] and in experiment [2] was no more than 100 nM in each case.

As for `Cc1c2c(nn1C1CCOCC1)OCCC(C)Nc1nc(ncc1Cl)N2` (stereo not drawn) [E5, 14-Chloro-4,11-dimethyl-5-(oxan-4-yl)-8-oxa-2,5,6,12,16,17-hexaazatricyclo [11.3.1.0^3,7]heptadeca-1(16),3,6,13(17),14-pentaene], the IC50 in experiment [1] and in experiment [2] was no more than 100 nM each time.

As to `Cc1c2c(nn1C1CC(N3CC4CC3CO4)C1)OCC[C@@H](C)Nc1nc(ncc1Cl)N2` (stereo in doubt) [E318, (11R)-14-Chloro-4,11-dimethyl-5-{3-[(1R,4R)-2-oxa-5-azabicyclo[2.2.1]heptan-5-yl]cyclobutyl}-8-oxa-2,5,6,12,16,17-hexaazatricyclo[11.3.1.0^3,7]heptadeca-1(16),3,6,13(17),14-pentaene], the IC50 in experiment [1] and in experiment [2] was no more than 100 nM in each case.

For the compound `FC1(F)CN(C2COC2)CCC1n1nc2c(c1Cl)Nc1ncc(Cl)c(n1)NCCCO2` (stereo not drawn) [E446, 4,14-Dichloro-5[3,3-difluoro-1-(oxetan-3-yl)piperidin-4-yl]-8-oxa-2,5,6,12,16,17-hexaazatricyclo[11.3.1.0^3,7]heptadeca-1(16),3,6,13(17),14-pentaene], the IC50 in experiment [1] and in experiment [2] was no more than 100 nM each time.

Regarding `COC1CNc2nc(ncc2Cl)Nc2c(nn(C3COC3)c2C)OC1` (single isomer, unassigned) [E270, 14-Chloro-10-methoxy-4-methyl-5-(oxetan-3-yl)-8-oxa-2,5,6,12,16,17-hexaazatricyclo[11.3.1.0^3,7]heptadeca-1(16),3,6,13(17),14-pentaene], the IC50 in experiment [1] and in experiment [2] was no more than 100 nM each time.

`Cc1c2c(nn1C1CCOCC1)OCCC(C1CC1)Nc1nc(ncc1Cl)N2` (single isomer, unassigned) [E293, 14-Chloro-11-cyclopropyl-4-methyl-5-(oxan-4-yl)-8-oxa-2,5,6,12,16,17-hexaazatricyclo[11.3.1.0^3,7]heptadeca-1(16),3,6,13(17),14-pentaene]: the IC50 in experiment [1] and in experiment [2] was no more than 100 nM each time.

In the case of `Cc1c2c(nn1C1CC3(COC3)C1)OCC[C@@H](C)Nc1nc(ncc1Cl)N2` [E301, (11R)-14-Chloro-4,11-dimethyl-5-{2-oxaspiro[3.3]heptan-6-yl}-8-oxa-2,5,6,12,16,17-hexaazatricyclo[11.3.1.0^3,7]heptadeca-1(17),3,6,13,15-pentaene], the IC50 in experiment [1] and in experiment [2] was no more than 100 nM throughout.
